Legend:
femoral artery = test: Vasodilator activity, femoral artery (technique of perfused paw); assay type: in vivo; parameters: key: O: no action; +: slight activity; ++: effect equal to half the effect of papaverine; +++: effect equal to that of papaverine; ++++: effect higher than that of papaverine; details: intra-arterial, 30 mg/kg, anaesthetized dog, vs papaverine at same dose
Procedure: (3) The vasodilator activity was measured at the level of femoral artery on anaesthetized dog (technique of perfused paw). The tested substances were given intra-arterially at the rate of 30 mg/kg. Results are expressed with respect to papaverine tested at the same dose.
++: effect equal to half the effect of papaverine.
+++: effect equal to that of papaverine.
++++: effect higher than that of papaverine.

[1] = tested on: guinea-pig ileum (acetylcholine contractions); test: Antispasmodic activity in vitro, contractions caused by acetylcholine; details: added 15 minutes before spasm-producing agent
Procedure: (§1) (4) The antispasmodic activity was measured in vitro, on guinea-pig ileum, the contractions of which were caused by histammne (Hist.), acetylcholine (Achol) or barium chloride (BaCl2). The tested products were added to perfusion bath 15 minutes before the spasm-producing agents.
(§2) The dose is given in micograms (μg) per ml of bath causing complete spasm inhibition.

[2] = tested on: unanaesthetized, hypertension-suffering rat; test: Antihypertensive activity (systolic arterial pressure), oral; assay type: in vivo; details: 60 mg/kg, hypertensive rat, 3 hours
Procedure: (2) The antihypertensive activity was measured on unanaesthetized, hypertension-suffering rat. The tested substances were orally given at a rate of 60 mg/kg. The systolic arterial pressure was measured every 30 minutes for 2 hours before and for 3 hours after the tested product was given. Results are expressed as follows: […]
O: no reduction of arterial pressure.
+: reduction lower than 10 mm Hg.
++: reduction of 10 to 20 mm Hg.
+++: reduction higher than 20 mm Hg.

[3] = tested on: guinea-pig ileum (histamine contractions); test: Antispasmodic activity in vitro, contractions caused by histamine; details: added 15 minutes before spasm-producing agent
Procedure: as §1, §2

[4] = Acute toxicity, oral, LD50 (Litchfield and Wilcoxon); details: mouse, in vivo, fasted male mice, confidence limits p=95% in brackets
Procedure: (1) The acute toxicity was determined on fasted male mice. The tested substances were orally administered and LD50 values (lethal dose for 50% of animals) were calculated according to the method of Litchfield and Wilcoxon (J. Pharmacol. exp. Ther. 96, 94-113, 1949). These LD50 values are given in mg/kg and also, when possible, with their confidence limits for p=95%.

| Compound | VASODILATOR ACTIVITY (femoral artery) | ANTISPASMODIC ACTIVITY ACHOL (dose causing complete spasm inhibition) [1] [μg per ml] | ANTIHYPERTENSIVE ACTIVITY [2] | ANTISPASMODIC ACTIVITY HIST. (dose causing complete spasm inhibition) [3] [μg per ml] | LD50 [4] [mg/kg] |
| --- | --- | --- | --- | --- | --- |
| CC(C(O)c1ccc2c(c1)CCCS2)N1CCOC(c2ccccc2)C1C (stereo not shown) [No 110] | 0 | 3.3 | + (reduction lower than 10 mm Hg) | 0.8 | – |
| CC(CCCc1ccccc1)NC(C)C(O)c1ccc2c(c1)CCCS2 (stereo not shown) [No 42] | +++ | 1.7 | +++ (reduction higher than 20 mm Hg) | 1.7 | – |
| CC(=O)OC(c1ccc2c(c1)CCS2)C(C)NCCCCc1ccccc1 (stereo not shown) [No 112] | +++ | 3.3 | +++ (reduction higher than 20 mm Hg) | 0.3 | – |
| CC(=O)O[C@@H](c1ccc2c(c1)CCS2)[C@H](C)NCCCCc1ccccc1 (relative stereo) [No 113] | – | – | + (reduction lower than 10 mm Hg) | – | – |
| COCCOCCCNC(C)C(O)c1ccc2c(c1)CCS2 (stereo not shown) [No 129] | – | – | +++ (reduction higher than 20 mm Hg) | – | 250 |
| CC1Cc2cc(C(O)C(C)NCCCc3ccccc3)ccc2S1 (stereo not shown) [No 67] | +++ | 1.7 | +++ (reduction higher than 20 mm Hg) | 1.7 | – |
| CCC(NCCCCc1ccccc1)C(O)c1ccc2c(c1)CCCS2 (stereo not shown) [No 135] | – | – | +++ (reduction higher than 20 mm Hg) | – | > 4000 |
| CC1Cc2cc(C(O)C(C)NCCCOc3ccccc3)ccc2S1 (stereo not shown) [No 64] | +++ | 1.7 | +++ (reduction higher than 20 mm Hg) | 1.7 | – |
| CCCCCCCCNC(C)C(O)c1ccc2c(c1)SCCS2 (stereo not shown) [No 101] | +++ | 0.8 | ++ (reduction of 10 to 20 mm Hg) | 0.8 | – |
| CC1Cc2cc(C(O)C(C)NCCCc3ccccc3)ccc2O1 (stereo not shown) [No 69] | ++ | 16.7 | +++ (reduction higher than 20 mm Hg) | 8.3 | – |
| 1-(2,3-dihydro-5-benzo[b]thienyl)-2-(4-phenylbutylamino)-1-propanol [Example 18] | ++++ | 0.33 | +++ (reduction higher than 20 mm Hg) | 0.8 | – |
| CCCCCCCCNC(C)C(OC(=O)CC)c1ccc2c(c1)CCCS2 (stereo not shown) [No 131] | – | – | + (reduction lower than 10 mm Hg) | – | > 4000 |
| CC(NCCCCc1ccccc1)C(O)c1ccc2c(c1)CCCC2 (stereo not shown) [No 171] | +++ | 0.8 | + (reduction lower than 10 mm Hg) | 0.8 | – |
| CCC(NCCOc1ccccc1)C(O)c1ccc2c(c1)CCS2 (stereo not shown) [No 126] | – | – | +++ (reduction higher than 20 mm Hg) | – | > 4000 |
| Cc1ccc(CCNC(C)C(O)c2ccc3c(c2)CC(C)S3)cc1 (stereo not shown) [No 71] | +++ | 0.8 | +++ (reduction higher than 20 mm Hg) | 0.8 | – |
| C[C@H](NCCCCc1ccccc1)[C@@H](O)c1ccc2c(c1)CCS2 (relative stereo) [No 98] | – | – | + (reduction lower than 10 mm Hg) | – | – |
| CCCCCCCCCCCCCCNC(C)C(O)c1ccc2c(c1)CCCS2 (stereo not shown) [No 76] | – | – | + (reduction lower than 10 mm Hg) | – | > 4000 |
| CC(NCCCCc1ccccc1)C(OC(=O)C1CCC1)c1ccc2c(c1)CCS2 (stereo not shown) [No 132] | – | – | +++ (reduction higher than 20 mm Hg) | – | 1900 |

| Compound | VASODILATOR ACTIVITY (femoral artery) | ANTISPASMODIC ACTIVITY ACHOL (dose causing complete spasm inhibition) [1] [μg per ml] | ANTIHYPERTENSIVE ACTIVITY [2] | ANTISPASMODIC ACTIVITY HIST. (dose causing complete spasm inhibition) [3] [μg per ml] | LD50 [4] [mg/kg] |
| --- | --- | --- | --- | --- | --- |
| COCCOCCCNC(C)C(O)c1ccc2c(c1)CCC2 (stereo not shown) [No 179] | – | – | +++ (reduction higher than 20 mm Hg) | – | 250 |
| CC(NCCCC(=O)c1ccc(F)cc1)C(O)c1ccc2c(c1)CCC2 (stereo not shown) [No 175] | ++ | 0.8 | +++ (reduction higher than 20 mm Hg) | 0.8 | – |
| CCCCOCCCNC(C)C(O)c1ccc2c(c1)CC(C)O2 (stereo not shown) [No 74] | ++ | 8.3 | + (reduction lower than 10 mm Hg) | 8.3 | – |
| CC(NCCCCc1ccccc1)C(OC(=O)C1CCCCC1)c1ccc2c(c1)CCS2 (stereo not shown) [No 138] | – | – | +++ (reduction higher than 20 mm Hg) | – | > 4000 |
| CCCC(=O)OC(c1ccc2c(c1)CCS2)C(C)NCCCCc1ccccc1 (stereo not shown) [No 130] | – | – | +++ (reduction higher than 20 mm Hg) | – | 3700 |
| CCCCCCCCNC(C)C(OC(=O)C(C)C)c1ccc2c(c1)CCCS2 (stereo not shown) [No 139] | – | – | +++ (reduction higher than 20 mm Hg) | – | – |
| 1-(2-methyl-2,3-dihydro-5-benzo[b]furanyl-2-[4-(p-chlorophenyl)butylamino]- 1-propanol [No 65] | ++++ | 1.7 | +++ (reduction higher than 20 mm Hg) | 1.7 | – |
| COc1ccc(OCCNC(C)C(O)c2ccc3c(c2)CCCS3)cc1 (stereo not shown) [No 53] | +++ | 1.7 | – | 3.3 | > 4000 |
| CC(C(O)c1ccc2c(c1)CCC2)N1CCOC(c2ccccc2)C1C (stereo not shown) [No 177] | – | 1.7 | ++ (reduction of 10 to 20 mm Hg) | 1.7 | – |
| C#CC(C)(C)NC(C)C(O)c1ccc2c(c1)CCCS2 (stereo not shown) [No 44] | ++ | 8.3 | +++ (reduction higher than 20 mm Hg) | 16.7 | – |
| CCCCCCCCNC(C)C(OC(=O)CCC)c1ccc2c(c1)CCCS2 (stereo not shown) [No 134] | – | – | +++ (reduction higher than 20 mm Hg) | – | > 4000 |
| Cc1ccc(CCCCNC(C)C(O)c2ccc3c(c2)CCCCS3)cc1 (stereo not shown) [No 30] | +++ | 0.8 | +++ (reduction higher than 20 mm Hg) | 1.7 | – |
| COCCOCCCNC(C)C(O)c1ccc2c(c1)CCCS2 (stereo not shown) [No 81] | ++ | 16.7 | +++ (reduction higher than 20 mm Hg) | 16.7 | – |
| CC(NCCCCc1ccccc1)C(OC(=O)C1CCCC1)c1ccc2c(c1)CCS2 (stereo not shown) [No 137] | – | – | +++ (reduction higher than 20 mm Hg) | – | ~1750 |
| CC(NCCCN1CCCC1=O)C(O)c1ccc2c(c1)CCCS2 (stereo not shown) [No 77] | 0 | 1.7 | – | 0.8 | 235 |
| Cc1ccc(CCCCNC(C)C(O)c2ccc3c(c2)CCC3)cc1 (stereo not shown) [No 166] | +++ | 0.8 | ++ (reduction of 10 to 20 mm Hg) | 0.8 | – |
| Cc1ccc(CCCCNC(C)C(O)c2ccc3c(c2)CC(C)O3)cc1 (stereo not shown) [No 90] | ++++ | 1.7 | +++ (reduction higher than 20 mm Hg) | 0.8 | – |
| CC(NCCOc1ccc(C#N)cc1)C(O)c1ccc2c(c1)CCS2 (stereo not shown) [No 85] | +++ | 16.7 | +++ (reduction higher than 20 mm Hg) | 8.3 | – |

— patent US4638070A, “Heterocyclic amino-alcohol derivatives” (Continental Pharma, priority 1980, dated 1987)
